Drawing on PubChem BioAssay (NCI), this text covers TGI and GI50 for 17 compounds.

Holding throughout (assay): NCI-60 cell line screen, 48 h
The subject of assay [1] is EKVX NSCLC.
For assay [2], the system named is HCC-2998 colon.
Assay [3] deals with SK-MEL-2 melanoma.
In assay [4] the test system is U251 CNS.
The subject of assay [5] is OVCAR-3 ovarian.
Assay [6] has as its system A498 renal.
Assay [7] deals with HOP-92 NSCLC.
Assay [8] deals with UACC-257 melanoma.
Assay [9] has as its system LOX IMVI melanoma.
Assay [10] has as its system SNB-19 CNS.

The structures appear in SMILES notation.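 Five compound concentrations were applied to cells in 96-well plates for 48 hours; endpoints were derived by simple linear interpolation of the resulting dose-response curve. GI50: concentration for 50% inhibition of growth. TGI marks complete inhibition of growth.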

Consider `S=c1cn[nH]c2ccc(Br)cc12`, for which the TGI in assay [1] is 75.3 µM; in [2], above 100 µM; in [3] it was 71.3 µM; in [4], above 100 µM; in [5] it was above 100 µM; in [6], above 100 µM. The TGI in assay [7], in assay [8], in assay [9] and in [10] was above 100 µM throughout.
With `COC(=O)c1c2c(c[n+]([O-])c1C)C(=O)C(NCc1ccccc1)=CC2=O`, the GI50 is 1.06 µM in [1]; 0.604 µM in assay [2]; 1.19 µM in assay [3]; 0.51 µM in assay [4]; 0.256 µM in assay [5]; 1.32 µM in assay [6]. Moreover, the GI50 was 1.04 µM in assay [7], 0.257 µM in assay [8], 0.279 µM in assay [9] and 1.46 µM in [10]. In addition, the TGI was 2.56 µM in assay [1]; 2 µM in assay [2]; 3.35 µM in assay [3]; 1.89 µM in assay [4]; 0.796 µM in assay [5]; 2.65 µM in assay [6]. Also, the TGI in assay [7] was 2.72 µM; in [8], 0.734 µM; in assay [9], 1.32 µM; in [10], 2.77 µM.
`CCOc1ccc(/C=N/Nc2cc(C)nc3ccc(Cl)cc23)cc1`: the GI50 is 2.18 µM in assay [1]; 2.19 µM in [2]; 1.9 µM in assay [3]; 1.91 µM in [4]; 1.93 µM in [5]; 1.7 µM in assay [6]. For the same compound, the GI50 in assay [7] was 2.1 µM; in [8], 1.81 µM; in [9], 1.73 µM; in assay [10], 2.37 µM. Also, the TGI was found to be 5.25 µM in [1]; 3.7 µM in assay [2]; 3.43 µM in assay [3]; 3.38 µM in assay [4]; 3.5 µM in assay [5]; 3.45 µM in assay [6]. For the same compound, the TGI in assay [7] turned out to be 7.08 µM; in assay [8], 3.32 µM; in assay [9], 3.14 µM; in assay [10] it was 5.07 µM.
Regarding `COc1ccccc1/C=C1\CCC(CN(C)C)C1=O` (stereo not given), the TGI in [1] is 38.9 µM; in assay [2] it was 14.2 µM; in [3] it was 24.4 µM; in [4], 26.9 µM; in [5], 18.6 µM; in [6], 34.1 µM. Further, the TGI in assay [7] was 15.9 µM; in [8] it was 25 µM; in assay [9], 4.67 µM; in assay [10], 26.7 µM.
For the compound `Clc1ccc(N/N=C/c2ccccn2)nc1`, the GI50 in assay [1] is 0.352 µM; in assay [2] it was 0.422 µM; in assay [3] it was 0.675 µM; in [4], 0.459 µM; in assay [5], 0.295 µM; in assay [6], 0.439 µM. Moreover, the GI50 is 0.608 µM in assay [7], 0.636 µM in assay [8], 0.326 µM in [9] and 0.674 µM in [10]. The TGI was above 100 µM in assay [1]; above 100 µM in [2]; above 100 µM in assay [3]; above 100 µM in [4]; above 100 µM in [5]; 5.9 µM in assay [6]. Further, the TGI in assay [7] is above 100 µM; in assay [8] it was above 23.6 µM; in assay [9], 18.6 µM; in assay [10], above 100 µM.
Regarding `C=C1C(=O)O[C@H]2[C@H]1CC/C(COC(=O)NCc1c[nH]c3ccc(OC)cc13)=C\CC[C@@]1(C)O[C@@H]21`, the GI50 is 2.07 µM in assay [1]; 5.77 µM in assay [2]; 6.27 µM in [3]; 3.39 µM in [4]; 0.695 µM in [5]; 13 µM in assay [6]. The GI50 in assay [7] is 1.79 µM; in assay [8] it was 2.02 µM; in assay [9], 1.19 µM; in assay [10], 4.76 µM. The TGI is 6.2 µM in assay [1]; 19 µM in assay [2]; 21.2 µM in assay [3]; 14 µM in assay [4]; 2.1 µM in assay [5]; 25.8 µM in assay [6]. Also, the TGI was found to be 3.44 µM in assay [7], 5.01 µM in [8], 2.52 µM in assay [9] and 18.4 µM in assay [10].
For the compound `CC(/C=C/C=C/C=C/C=C/C=C/C(O)=C1/C(=O)C(CCC(=O)O)N(C)C1=O)=C\C(C)C(OC1CC(O)C(O)C(C)O1)C(C)C` (stereo not given), the TGI in assay [1] was found to be 12.4 µM; in assay [2], 7.53 µM; in [3], 12.9 µM; in [4], 11.7 µM; in [5], 5.12 µM; in [6], 10.7 µM. Moreover, the TGI in assay [7] was determined as 8.66 µM; in [8], 6.66 µM; in assay [9] it was 11.5 µM; in [10] it was 9.44 µM.
Consider `CC(C)Cc1ccc(C(C)/C=C2\CCC(CN3CCOCC3)C2=O)cc1` (stereo not given), for which the TGI came out at 32.8 µM in assay [1]; 24.1 µM in assay [2]; 31.3 µM in assay [3]; 27.7 µM in assay [4]; 9.95 µM in [5]; 27 µM in [6]. In addition, the TGI in [7] turned out to be 39.7 µM; in assay [8], 14.7 µM; in assay [9] it was 7.73 µM; in [10], 21.4 µM.
As for `Clc1ccc(-c2nc(-c3c[nH]c4ncccc34)cs2)cc1`, the GI50 in assay [1] is 0.582 µM; in [2] it was above 100 µM; in assay [3] it was above 100 µM; in assay [4] it was above 100 µM; in assay [5] it was above 100 µM; in assay [6], above 100 µM. Also, the GI50 in assay [7] is 0.0277 µM; in assay [8], above 100 µM; in assay [9] it was above 100 µM; in assay [10] it was above 100 µM. Moreover, the TGI in assay [1], in assay [2], in [3], in assay [4], in assay [5] and in assay [6] was above 100 µM throughout. Moreover, the TGI in assay [7], in assay [8], in assay [9] and in assay [10] was above 100 µM throughout.
On to `CCS(=O)(=O)c1ccc(OC)c(Nc2ncc(-c3cccc(-c4ccccc4F)c3)o2)c1`, for which the GI50 is 7.89 µM in assay [1]; above 25 µM in assay [2]; above 25 µM in [3]; 12.1 µM in assay [4]; 15.7 µM in assay [5]; 1.07 µM in assay [6]. The GI50 in [7] was 3.16 µM; in [8], above 25 µM; in assay [9] it was 15.1 µM; in assay [10], above 17.2 µM. The TGI in assay [1] is above 25 µM; in assay [2], above 25 µM; in [3], above 25 µM; in assay [4] it was above 25 µM; in [5] it was above 25 µM; in assay [6] it was 7.54 µM. The TGI in [7] is 20.7 µM; in assay [8] it was above 25 µM; in [9], above 25 µM; in assay [10], above 25 µM.
As for `O=C(Nc1cccnc1)c1cccs1`, the GI50 in [1] is above 100 µM; in assay [2], 5.56 µM; in assay [3] it was above 100 µM; in assay [4], 1.86 µM; in [5], 1.19 µM; in assay [6], above 100 µM. Moreover, the GI50 is above 100 µM in assay [7], above 100 µM in assay [8], above 100 µM in [9] and 9.56 µM in assay [10]. For the same compound, the TGI in assay [1], in [2], in assay [3], in [4], in assay [5] and in assay [6] was above 100 µM in each case. For the same compound, the TGI in assay [7], in assay [8], in [9] and in [10] was above 100 µM each time.
`Nc1cccc(-c2nc3sccn3c2-c2ccnc(NCCCNS(=O)(=O)c3ccc(C(F)(F)F)cc3)n2)c1`: the GI50 was 6.09 µM in assay [1]; 5.29 µM in [2]; 4.66 µM in [3]; 5.87 µM in assay [4]; 3.87 µM in assay [5]; 3.35 µM in [6]. Moreover, the GI50 in assay [7] is 11.4 µM; in assay [8], 5.27 µM; in assay [9], 3.27 µM; in [10] it was 8.33 µM. In addition, the TGI in [1] is 86.1 µM; in assay [2], 92 µM; in assay [3] it was 23.4 µM; in [4] it was above 100 µM; in assay [5] it was 23.4 µM; in assay [6], 49.5 µM. Further, the TGI is 83.5 µM in assay [7], 50.6 µM in assay [8], 16.1 µM in assay [9] and above 100 µM in assay [10].
Take `COc1ccc(C2=C(Br)C(=O)OC2)cc1Cl`: the GI50 in [1] is 16.7 µM; in assay [2] it was 14.9 µM; in assay [3], above 91.2 µM; in [4] it was 28.5 µM; in assay [5], 45.7 µM; in [6], 27.9 µM. The GI50 is 45.2 µM in assay [7], 21 µM in assay [8], 18.9 µM in [9] and 10.6 µM in [10]. Moreover, the TGI was 71.4 µM in [1]; 38.2 µM in [2]; above 100 µM in assay [3]; above 91.1 µM in assay [4]; above 89.8 µM in [5]; above 80.7 µM in assay [6]. For the same compound, the TGI in assay [7] is above 100 µM; in assay [8], 59.5 µM; in [9], 46.5 µM; in assay [10] it was above 100 µM.
On to `CCCCC(SC(=S)N(CC)CC)C(=O)Nc1nc(CC(=O)OCC)cs1` (stereo not given), for which the GI50 in [1] was 45.7 µM; in [2], 59.3 µM; in assay [3], 29.2 µM; in assay [4], 42.1 µM; in assay [5], 13.7 µM; in assay [6], 54.3 µM. The GI50 in [7] is 53.1 µM; in assay [8] it was 35.6 µM; in assay [9], 29.6 µM; in assay [10], 56.9 µM. The TGI in assay [1] was above 100 µM; in assay [2] it was above 100 µM; in assay [3] it was 86 µM; in [4], above 100 µM; in [5], above 100 µM; in assay [6], above 100 µM. Also, the TGI in assay [7], in [8], in assay [9] and in [10] was above 100 µM throughout.
On to `CNC(=O)c1cc(Oc2ccc3nc(NC(=O)c4cc(C(F)(F)F)cc(C(F)(F)F)c4)sc3c2)ccn1`, for which the GI50 in assay [1] was 3.43 µM; in assay [2], 6.63 µM; in [3], 2.32 µM; in assay [4], 3.65 µM; in [5], 2.32 µM; in [6], 1.45 µM. The GI50 in assay [7] is 1.68 µM; in assay [8], 2.89 µM; in assay [9] it was 3.39 µM; in assay [10], 3.76 µM. Moreover, the TGI is 23.3 µM in assay [1]; 24.7 µM in assay [2]; 6.7 µM in [3]; 13.7 µM in assay [4]; 6.64 µM in [5]; 4.51 µM in assay [6]. The TGI in assay [7] stood at 7.21 µM; in [8], 8.12 µM; in assay [9], 15.1 µM; in [10], 22.8 µM.
For the compound `CC(=O)N(/N=C\c1ccc([N+](=O)[O-])cc1)c1ccccc1`, the TGI in assay [1], in assay [2], in assay [3], in assay [4], in assay [5] and in assay [6] was above 100 µM each time. Further, the TGI in assay [7], in [8], in [9] and in [10] was above 100 µM in each case.
Consider `CC(C)[C@@H]1NC(=O)[C@]2(C)CSC(=N2)c2csc(n2)CNC(=O)C[C@@H](/C=C/CCS)OC1=O`, for which the GI50 is 0.198 µM in [1]; 0.089 µM in assay [2]; 0.049 µM in assay [3]; 0.0843 µM in assay [4]; 0.359 µM in assay [5]; 0.0156 µM in assay [6]. Also, the GI50 in [7] was 0.137 µM; in assay [8] it was 0.0537 µM; in assay [9], 0.131 µM; in [10], 0.168 µM. Besides, the TGI in assay [1] was above 100 µM; in [2] it was 0.442 µM; in assay [3] it was 1.49 µM; in [4], 1.02 µM; in assay [5], 4.12 µM; in [6], 0.114 µM. For the same compound, the TGI was 0.677 µM in assay [7], 2.15 µM in assay [8], 0.355 µM in assay [9] and above 44.3 µM in assay [10].
